How the values were obtained:
B-RAF G466V = target: T1, B-RAF G466V (Homo sapiens, UniProt P15056, G466V); test: Target protein degradation, assay D: T-Rex 293 cells, HA-BRAF_G466V, 384 well format; assay type: cell-based; conditions: T-Rex 293 HA-BRAF_G466V cells, 24 hours, Examples 83-269; for DC50: Assay D; for Dmax: T-REx-293, Assay D
T1 construct: expressed in transfected cells; host or cells: T-Rex 293 cells (Invitrogen #R71007)
Summary of the method: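 Degradation measured by high-content imaging of anti-HA immunofluorescence in fixed T-Rex 293 cells carrying inducible HA-BRAF G466V (1 ng/mL doxycycline), after 24 h PROTAC exposure at 37 °C over 300 nM–5 pM (1:3, 11 points, 0.5% DMSO). Outputs DC50 and Dmax as % of control; nuclei counts against DMSO wells gauge toxicity.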

B-RAF V600E = target: T2, B-RAF V600E (Homo sapiens, UniProt P15056, V600E); test: Target protein degradation, assay C: T-Rex 293 cells, HA-BRAF_V600E, 384 well format; assay type: cell-based; conditions: T-Rex 293 HA-BRAF_V600E cells, 24 hours, Examples 83-269; for DC50: Assay C; for Dmax: T-REx-293, Assay C
T2 construct: expressed in transfected cells; host or cells: T-Rex 293 cells (Invitrogen #R71007)
T2 sequence (P15056 whole entry V600E): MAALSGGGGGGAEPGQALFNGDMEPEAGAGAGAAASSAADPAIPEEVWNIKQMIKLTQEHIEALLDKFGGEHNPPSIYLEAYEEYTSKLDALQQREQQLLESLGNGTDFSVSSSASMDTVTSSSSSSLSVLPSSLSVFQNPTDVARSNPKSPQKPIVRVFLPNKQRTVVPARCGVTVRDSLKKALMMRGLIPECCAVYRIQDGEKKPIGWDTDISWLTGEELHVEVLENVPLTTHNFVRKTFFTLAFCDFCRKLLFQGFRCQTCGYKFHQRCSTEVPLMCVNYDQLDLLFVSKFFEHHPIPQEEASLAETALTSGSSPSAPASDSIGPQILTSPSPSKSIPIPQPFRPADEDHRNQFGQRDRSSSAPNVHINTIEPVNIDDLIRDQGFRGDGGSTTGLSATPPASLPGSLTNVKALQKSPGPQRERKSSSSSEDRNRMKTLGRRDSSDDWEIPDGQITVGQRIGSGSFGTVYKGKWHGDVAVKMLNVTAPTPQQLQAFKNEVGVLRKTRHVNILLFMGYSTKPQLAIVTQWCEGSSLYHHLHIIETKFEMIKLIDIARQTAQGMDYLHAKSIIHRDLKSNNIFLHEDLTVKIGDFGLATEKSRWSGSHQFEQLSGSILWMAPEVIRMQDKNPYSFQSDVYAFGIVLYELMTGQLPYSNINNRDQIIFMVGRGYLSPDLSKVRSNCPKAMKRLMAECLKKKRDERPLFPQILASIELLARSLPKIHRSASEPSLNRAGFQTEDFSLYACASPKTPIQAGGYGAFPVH
Summary of the method: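 After 24 h exposure to an 11-point 1:3 series (300 nM–5 pM, 0.5% DMSO), fixed T-Rex 293 cells carrying HA-BRAF V600E (induced with 1 ng/mL doxycycline) were stained anti-HA and imaged. DC50 and Dmax were derived from BRAF intensity relative to control, and cytotoxicity from nuclear counts.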

T1 sequence (P15056 whole entry G466V): as the sequence (P15056 whole entry V600E) above, with G466V, E600V counted along it

SMILES	DC50 (B-RAF G466V) [nM]	DC50 (B-RAF V600E) [nM]	Dmax (B-RAF V600E) [%]	Dmax (B-RAF G466V) [%]
CN(CC1CCN(c2ccc(-n3cnc4ccc(Oc5c(F)ccc(NS(=O)(=O)N6CC[C@@H](F)C6)c5C#N)cc4c3=O)cc2)CC1)[C@H]1C[C@@H](Oc2ccc3c(c2)CN([C@H]2CCC(=O)NC2=O)C3=O)C1 [Example 206, (3R)-N-{2-cyano-4-fluoro-3-[(3-{4-[4-({methyl[(1r,3r)-3-({2-[(3S)-2,6-dioxopiperidin-3-yl]-1-oxo-2,3-dihydro-1H-isoindol-5-yl}oxy)cyclobutyl]amino}methyl)piperidin-1-yl]phenyl}-4-oxo-3,4-dihydroquinazolin-6-yl)oxy]phenyl}-3-fluoropyrrolidine-1-sulfonamide]	1 to 10	50 to 500	≥ 70	≤ 35
N#Cc1c(NS(=O)(=O)N2CC[C@@H](F)C2)ccc(F)c1Oc1ccc2ncn(-c3ccc(N4CCN(CC5CCN(c6ccc7c(c6)CN(C6CCC(=O)NC6=O)C7=O)CC5)CC4)nn3)c(=O)c2c1 (stereo partly drawn) [Example 92, (3R)-N-{2-cyano-3-[(3-{6-[4-({1-[2-(2,6-dioxopiperidin-3-yl)-1-oxo-2,3-dihydro-1H-isoindol-5-yl]piperidin-4-yl}methyl)piperazin-1-yl]pyridazin-3-yl}-4-oxo-3,4-dihydroquinazolin-6-yl)oxy]-4-fluorophenyl}-3-fluoropyrrolidine-1-sulfonamide]	10 to 30	50 to 500	≤ 35	≤ 35
N#Cc1c(NS(=O)(=O)N2CC[C@@H](F)C2)ccc(F)c1Oc1ccc2ncn(-c3ccc(N4CCN(c5ccc6c(c5)CN(C5CCC(=O)NC5=O)C6=O)CC4)nc3)c(=O)c2c1 (stereo partly shown) [Example 143]	> 30	≤ 5	35 to 70	
N#Cc1c(NS(=O)(=O)N2CC[C@@H](F)C2)ccc(F)c1Oc1ccc2ncn(-c3ccc(N4CCC5(CC4)CN(CC4CCN(c6ccc7c(c6)CN([C@@H]6CCC(=O)NC6=O)C7=O)CC4)C5)cc3)c(=O)c2c1 [Example 203, (3R)-N-(2-cyano-3-{[3-(4-{2-[(1-{2-[(3R)-2,6-dioxopiperidin-3-yl]-1-oxo-2,3-dihydro-1H-isoindol-5-yl}piperidin-4-yl)methyl]-2,7-diazaspiro[3.5]nonan-7-yl}phenyl)-4-oxo-3,4-dihydroquinazolin-6-yl]oxy}-4-fluorophenyl)-3-fluoropyrrolidine-1-sulfonamide]	1 to 10	50 to 500	35 to 70	35 to 70
Cc1c(NS(=O)(=O)N2CC[C@@H](F)C2)ccc(F)c1Oc1ccc2ncn(-c3ccc(N4CCN(CC5CCN(c6ccc7c(c6)CN(C6CCC(=O)NC6=O)C7=O)CC5)CC4)cc3)c(=O)c2c1 (stereo partly drawn) [Example 210, (3R)-N-{3-[(3-{4-[4-({1-[2-(2,6-dioxopiperidin-3-yl)-1-oxo-2,3-dihydro-1H-isoindol-5-yl]piperidin-4-yl}methyl)piperazin-1-yl]phenyl}-4-oxo-3,4-dihydroquinazolin-6-yl)oxy]-4-fluoro-2-methylphenyl}-3-fluoropyrrolidine-1-sulfonamide]	10 to 30	50 to 500	35 to 70	35 to 70
N#Cc1c(NS(=O)(=O)N2CC[C@@H](F)C2)ccc(F)c1Oc1ccc2ncn(-c3ccc(N4CC5(CN(CC6CCN(c7ccc8c(c7)C(=O)N(C7CCC(=O)NC7=O)C8=O)CC6)C5)C4)nc3)c(=O)c2c1 (stereo partly drawn) [Example 172, (3R)-N-{2-cyano-3-[(3-{6-[6-({1-[2-(2,6-dioxopiperidin-3-yl)-1,3-dioxo-2,3-dihydro-1H-isoindol-5-yl]piperidin-4-yl}methyl)-2,6-diazaspiro[3.3]heptan-2-yl]pyridin-3-yl}-4-oxo-3,4-dihydroquinazolin-6-yl)oxy]-4-fluorophenyl}-3-fluoropyrrolidine-1-sulfonamide]	1 to 10	50 to 500	≤ 35	≤ 35
CCN(C)S(=O)(=O)Nc1ccc(F)c(Oc2ccc3ncn(-c4ccc(N5CCN(CC6CCN(c7ccc(C8CCC(=O)NC8=O)cc7F)CC6)CC5)cc4)c(=O)c3c2)c1C#N (stereo not shown) [Example 110, 2-[(3-{4-[4-({1-[4-(2,6-dioxopiperidin-3-yl)-2-fluorophenyl]piperidin-4-yl}methyl)piperazin-1-yl]phenyl}-4-oxo-3,4-dihydroquinazolin-6-yl)oxy]-6-{[ethyl(methyl)sulfamoyl]amino}-3-fluorobenzonitrile]	> 30	50 to 500	35 to 70	
N#Cc1c(NS(=O)(=O)N2CC[C@@H](F)C2)ccc(F)c1Oc1ccc2ncn(-c3cnc(N4CCC(CN5CC6(C5)CN(c5cccc7c5C(=O)N(C5CCC(=O)NC5=O)C7=O)C6)CC4)nc3)c(=O)c2c1 (stereo partly drawn) [Example 153, (3R)-N-{2-cyano-3-[(3-{2-[4-({6-[2-(2,6-dioxopiperidin-3-yl)-1,3-dioxo-2,3-dihydro-1H-isoindol-4-yl]-2,6-diazaspiro[3.3]heptan-2-yl}methyl)piperidin-1-yl]pyrimidin-5-yl}-4-oxo-3,4-dihydroquinazolin-6-yl)oxy]-4-fluorophenyl}-3-fluoropyrrolidine-1-sulfonamide]	> 30	50 to 500	35 to 70	
N#Cc1c(NS(=O)(=O)N2CC[C@@H](F)C2)ccc(F)c1Oc1ccc2ncn(-c3ccc(N4CC5(CN(CC6CCN(c7cccc8c7C(=O)N(C7CCC(=O)NC7=O)C8=O)CC6)C5)C4)nc3)c(=O)c2c1 (stereo partly drawn) [Example 174, (3R)-N-{2-cyano-3-[(3-{6-[6-({1-[2-(2,6-dioxopiperidin-3-yl)-1,3-dioxo-2,3-dihydro-1H-isoindol-4-yl]piperidin-4-yl}methyl)-2,6-diazaspiro[3.3]heptan-2-yl]pyridin-3-yl}-4-oxo-3,4-dihydroquinazolin-6-yl)oxy]-4-fluorophenyl}-3-fluoropyrrolidine-1-sulfonamide]	1 to 10	50 to 500	35 to 70	≤ 35

Results, then the molecule that gave them:

DC50 (B-RAF G466V) [nM]	DC50 (B-RAF V600E) [nM]	Dmax (B-RAF V600E) [%]	Dmax (B-RAF G466V) [%]	SMILES
> 30	50 to 500	35 to 70		N#Cc1c(NS(=O)(=O)N2CC[C@@H](F)C2)ccc(F)c1Oc1ccc2ncn(-c3ccc(N4CCN(CC5CCN(c6cc7c(c(C(F)(F)F)c6)C(=O)N(C6CCC(=O)NC6=O)C7)CC5)CC4)cc3)c(=O)c2c1 (stereo partly drawn) [Example 266, (3R)-N-{2-cyano-3-[(3-{4-[4-({1-[2-(2,6-dioxopiperidin-3-yl)-1-oxo-7-(trifluoromethyl)-2,3-dihydro-1H-isoindol-5-yl]piperidin-4-yl}methyl)piperazin-1-yl]phenyl}-4-oxo-3,4-dihydroquinazolin-6-yl)oxy]-4-fluorophenyl}-3-fluoropyrrolidine-1-sulfonamide]
1 to 10	50 to 500	≥ 70	≥ 70	N#Cc1c(NS(=O)(=O)N2CC[C@@H](F)C2)ccc(F)c1Oc1ccc2ncn(-c3cccc(N4CCN(CC5CCN(c6ccc7c(c6)CN([C@H]6CCC(=O)NC6=O)C7=O)CC5)CC4)c3)c(=O)c2c1 [Example 239, (3R)-N-(2-cyano-3-{[3-(3-{4-[(1-{2-[(3S)-2,6-dioxopiperidin-3-yl]-1-oxo-2,3-dihydro-1H-isoindol-5-yl}piperidin-4-yl)methyl]piperazin-1-yl}phenyl)-4-oxo-3,4-dihydroquinazolin-6-yl]oxy}-4-fluorophenyl)-3-fluoropyrrolidine-1-sulfonamide]
1 to 10	50 to 500	35 to 70	≥ 70	N#Cc1c(NS(=O)(=O)N2CC[C@@H](F)C2)ccc(F)c1Oc1ccc2ncn(-c3cccc(N4CCN(CC5CN(c6ccc7c(c6)CN([C@H]6CCC(=O)NC6=O)C7=O)C5)CC4)c3)c(=O)c2c1 [Example 254, (3R)-N-(2-cyano-3-{[3-(3-{4-[(1-{2-[(3S)-2,6-dioxopiperidin-3-yl]-1-oxo-2,3-dihydro-1H-isoindol-5-yl}azetidin-3-yl)methyl]piperazin-1-yl}phenyl)-4-oxo-3,4-dihydroquinazolin-6-yl]oxy}-4-fluorophenyl)-3-fluoropyrrolidine-1-sulfonamide]
1 to 10	50 to 500	35 to 70	35 to 70	N#Cc1c(NS(=O)(=O)N2CC[C@@H](F)C2)ccc(F)c1Oc1ccc2ncn(-c3ccc(C4CCN(CC5CN(c6ccc7c(c6Cl)CN([C@H]6CCC(=O)NC6=O)C7=O)C5)CC4)cc3)c(=O)c2c1 [Example 258, (3R)-N-(3-{[3-(4-{1-[(1-{4-chloro-2-[(3S)-2,6-dioxopiperidin-3-yl]-1-oxo-2,3-dihydro-1H-isoindol-5-yl}azetidin-3-yl)methyl]piperidin-4-yl}phenyl)-4-oxo-3,4-dihydroquinazolin-6-yl]oxy}-2-cyano-4-fluorophenyl)-3-fluoropyrrolidine-1-sulfonamide]
1 to 10	50 to 500	35 to 70	35 to 70	CN(c1ccc2c(c1)CN([C@H]1CCC(=O)NC1=O)C2=O)C1CCC2(CC1)CCN(CC1CCN(c3ccc(-n4cnc5ccc(Oc6c(F)ccc(NS(=O)(=O)N7CC[C@@H](F)C7)c6C#N)cc5c4=O)cc3)CC1)CC2 [Example 222, (3R)-N-[2-cyano-3-({3-[4-(4-{[9-({2-[(3S)-2,6-dioxopiperidin-3-yl]-1-oxo-2,3-dihydro-1H-isoindol-5-yl}(methyl)amino)-3-azaspiro[5.5]undecan-3-yl]methyl}piperidin-1-yl)phenyl]-4-oxo-3,4-dihydroquinazolin-6-yl}oxy)-4-fluorophenyl]-3-fluoropyrrolidine-1-sulfonamide]
